Several values for one entry are separate records, joined by “and”; a condition that tells them apart may be missing. Equal values may be shown once. Read-outs that look alike come from different tables or passages of the source.
Tested on: PC3-TxR cells
Assay: SRB cell viability assay, docetaxel-resistant PC3-TxR cells
Settings: Homo sapiens
Protocol: The CE is expressed as: CE=IC50D/IC50E+D. IC50D is the IC50 of the chemotherapeutic drug against which an test extract (or other compound suspected of having a CE) is evaluated. IC50E+D is the IC50 of the combination of the test extract and chemotherapeutic drug. The CE of a test extract or compound can vary depending on the type of cell and the specific chemotherapeutic or class or combination of therapeutics that are being evaluated.
The variance between those concentrations can be quantitated by calculating the Chemosensitizing Utility Index (CUI) value for a test extract or compound. The CUI is expressed as: CUI=CE×(IC50E/ConE). […] ConE is the concentration of an extract or compound that is required to produce desirable CE.
CE and CUI values were obtained individually for the aqueous, ethanol, and chloroform extracts that are described above. […] In the Examples, the ethanol, is referred to as Lei Gong Teng extract (LGT-E).
PC3-TxR cells were plated into sterile, F-bottom Cellstar® 96 well cell culture plates with lids (Cat #655180, Purchased from Greiner Bio-one, Monroe, N.C.) by placing into each well, 100 μl of medium containing 3000 cells in RPMI 1640 supplemented with 10% fetal bovine serum (Thermo Scientific, Logan, Utah) and a solution of penicillin (100 U/ml) and streptomycin (100 μg/ml) (Life Technologies Grand Island, N.Y.). The cells were at passage 52 at the time of plating. Triplicate wells were assigned to each experimental condition tested, and a 24 hour recovery period for the cells following the seeding of the wells was allowed. During the recovery period, the cells were incubated at 37° C. and 5% CO2.
The LGT-E was prepared by adding an appropriate amount of LGT-E powder to DMSO to form a 500 mg/ml stock solution. The stock solution was alternately vortexed and sonicated until the LGT-E powder went into solution. The stock solution was diluted in RPMI 1640 medium (Mediatech, Manassas, Va., or Life Technologies Grand Island, NY) to reach the desired concentrations of LGT-E (e.g., 12, 25, or 60 μg/ml).
Pretreatment of the cells with LGT-E was carried out by aspirating the media from the wells, followed by adding 50 μl of LGT-E solution containing concentrations of either 12 or 25 μg/ml of LGT-E solution and incubation of the cells for two hours under conditions of 37° C. and 5% CO2.
Media was aspirated from each well, and replaced with a 10% solution of cold trichloroacetic acid (TCA) (Cat #: T6399, purchased from Sigma-Aldrich), and incubated for one hour at 4° C. After the TCA incubation, the TCA solution was aspirated, and the cells were washed five times with tap water. After removing the last wash, the plates were left with lids off at room temperature until the surfaces were dry, which took one to two hours. Then 50 μl of a 0.4% solution of sul-forhodamine B (SRB) sodium salt (Cat #: S9012, purchased from Sigma-Aldrich) was added to each well and the plates were incubated at room temperature for 20 to 30 minutes. Afterwards, the wells were washed five times with a 1% acetic acid solution in 10 mM TRIS base (Cat#: 161-0719, purchased from Bio-Rad Laboratories, Hercules, Calif.). The plates were subsequently left to dry for several hours or overnight. SRB that remained in the dried wells was solubilized by adding 100 μl of SRB solubilization solution (10 mM TRIS base) to each well, and placing the plates either on a gently-moving shaker or letting the plates remain stationary at room temperature until the SRB dissolves, which takes about five to ten minutes. The amount of SRB in each well, which correlated directly to the number of living cells at fixation, was determined spectrophotometrically at an absorbance of 565 nm by a microplate reader.

## CC(=O)O[C@@]12CO[C@@H]1C[C@H](O)[C@@]1(C)C(=O)[C@H](O)C3=C(C)[C@@H](OC(=O)[C@H](O)[C@@H](NC(=O)OC(C)(C)C)c4ccccc4)C[C@@](O)([C@@H](OC(=O)c4ccccc4)[C@H]21)C3(C)C [Docetaxel, docetaxel]
read-out: % viable, PC3-TxR, LGT-E 12 μg/ml pre-treatment, docetaxel 0.001 nM 72 h
  viability at 1 pM: 100%
read-out: % viable, PC3-TxR, LGT-E 12 μg/ml pre-treatment, docetaxel 0.1 nM 72 h
  viability at 0.0001 µM: 105%
read-out: % viable, PC3-TxR, LGT-E 12 μg/ml pre-treatment, docetaxel 0.333 nM 72 h
  viability at 0.000333 µM: 103%
read-out: % viable, PC3-TxR, LGT-E 12 μg/ml pre-treatment, docetaxel 1 nM 72 h
  viability at 0.001 µM: 97.8%
read-out: % viable, PC3-TxR, LGT-E 12 μg/ml pre-treatment, docetaxel 3.33 nM 72 h
  viability at 0.00333 µM: 62.4%
read-out: % viable, PC3-TxR, LGT-E 12 μg/ml pre-treatment, docetaxel 10 nM 72 h
  viability at 0.01 µM: 21.2%
read-out: % viable, PC3-TxR, LGT-E 12 μg/ml pre-treatment, docetaxel 33.3 nM 72 h
  viability at 0.0333 µM: 7%
read-out: % viable, PC3-TxR, LGT-E 12 μg/ml pre-treatment, docetaxel 100 nM 72 h
  viability at 0.1 µM: 4.1%
read-out: % viable, PC3-TxR, LGT-E 25 μg/ml pre-treatment, docetaxel 0.001 nM 72 h
  viability at 1 pM: 100%
read-out: % viable, PC3-TxR, LGT-E 25 μg/ml pre-treatment, docetaxel 0.1 nM 72 h
  viability at 0.0001 µM: 99.9%
read-out: % viable, PC3-TxR, LGT-E 25 μg/ml pre-treatment, docetaxel 0.333 nM 72 h
  viability at 0.000333 µM: 99.1%
read-out: % viable, PC3-TxR, LGT-E 25 μg/ml pre-treatment, docetaxel 1 nM 72 h
  viability at 0.001 µM: 82.5%
read-out: % viable, PC3-TxR, LGT-E 25 μg/ml pre-treatment, docetaxel 3.33 nM 72 h
  viability at 0.00333 µM: 34.6%
read-out: % viable, PC3-TxR, LGT-E 25 μg/ml pre-treatment, docetaxel 10 nM 72 h
  viability at 0.01 µM: 9.4%
read-out: % viable, PC3-TxR, LGT-E 25 μg/ml pre-treatment, docetaxel 33.3 nM 72 h
  viability at 0.0333 µM: 4.9%
read-out: % viable, PC3-TxR, LGT-E 25 μg/ml pre-treatment, docetaxel 100 nM 72 h
  viability at 0.1 µM: 4.7%
read-out: % viable, PC3-TxR, no LGT-E pre-treatment (Table 2), docetaxel 0.001 nM 72 h
  viability at 1 pM: 100%
read-out: % viable, PC3-TxR, no LGT-E pre-treatment (Table 2), docetaxel 0.1 nM 72 h
  viability at 0.0001 µM: 98.5%
read-out: % viable, PC3-TxR, no LGT-E pre-treatment (Table 2), docetaxel 0.333 nM 72 h
  viability at 0.000333 µM: 100%
read-out: % viable, PC3-TxR, no LGT-E pre-treatment (Table 2), docetaxel 1 nM 72 h
  viability at 0.001 µM: 105%
read-out: % viable, PC3-TxR, no LGT-E pre-treatment (Table 2), docetaxel 10 nM 72 h
  viability at 0.01 µM: 77%
read-out: % viable, PC3-TxR, no LGT-E pre-treatment (Table 2), docetaxel 33.3 nM 72 h
  viability at 0.0333 µM: 29.7%
read-out: % viable, PC3-TxR, no LGT-E pre-treatment (Table 2), docetaxel 100 nM 72 h
  viability at 0.1 µM: 11.3%
read-out: % viable, PC3-TxR, no LGT-E pre-treatment (Table 4), docetaxel 0.001 nM 72 h
  viability at 1 pM: 100%
read-out: % viable, PC3-TxR, no LGT-E pre-treatment (Table 4), docetaxel 0.1 nM 72 h
  viability at 0.0001 µM: 98.7%
read-out: % viable, PC3-TxR, no LGT-E pre-treatment (Table 4), docetaxel 0.333 nM 72 h
  viability at 0.000333 µM: 99.9%
read-out: % viable, PC3-TxR, no LGT-E pre-treatment (Table 4), docetaxel 1 nM 72 h
  viability at 0.001 µM: 99.2%
read-out: % viable, PC3-TxR, no LGT-E pre-treatment (Table 4), docetaxel 3.33 nM 72 h
  viability at 0.00333 µM: 98.5%
read-out: % viable, PC3-TxR, no LGT-E pre-treatment (Table 4), docetaxel 10 nM 72 h
  viability at 0.01 µM: 76.7%
read-out: % viable, PC3-TxR, no LGT-E pre-treatment (Table 4), docetaxel 33.3 nM 72 h
  viability at 0.0333 µM: 32.9%
read-out: % viable, PC3-TxR, no LGT-E pre-treatment (Table 4), docetaxel 100 nM 72 h
  viability at 0.1 µM: 13.4%
read-out: % viable, PC3-TxR, no LGT-E pre-treatment (Table 11, Example 4), docetaxel 0.001 nM 72 h
  viability at 1 pM: 100%
read-out: % viable, PC3-TxR, no LGT-E pre-treatment (Table 11, Example 4), docetaxel 0.1 nM 72 h
  viability at 0.0001 µM: 98.7%
read-out: % viable, PC3-TxR, no LGT-E pre-treatment (Table 11, Example 4), docetaxel 0.333 nM 72 h
  viability at 0.000333 µM: 99.9%
read-out: % viable, PC3-TxR, no LGT-E pre-treatment (Table 11, Example 4), docetaxel 1 nM 72 h
  viability at 0.001 µM: 99.2%
read-out: % viable, PC3-TxR, no LGT-E pre-treatment (Table 11, Example 4), docetaxel 3.33 nM 72 h
  viability at 0.00333 µM: 98.5%
read-out: % viable, PC3-TxR, no LGT-E pre-treatment (Table 11, Example 4), docetaxel 10 nM 72 h
  viability at 0.01 µM: 76.7%
read-out: % viable, PC3-TxR, no LGT-E pre-treatment (Table 11, Example 4), docetaxel 33.3 nM 72 h
  viability at 0.0333 µM: 32.9%
read-out: % viable, PC3-TxR, no LGT-E pre-treatment (Table 11, Example 4), docetaxel 100 nM 72 h
  viability at 0.1 µM: 13.4%
read-out: IC50 of drug when cells pre-treated with Chemosensitizing Agent before drug treatment, docetaxel, LGT-E 25 μg/ml pre-treatment
  IC50: 2.19 nM and 0.00177 µg/mL
read-out: IC50 of drug when cells treated with drug only, docetaxel, line of LGT-E 25 μg/ml
  IC50: 18.3 nM and 0.0148 µg/mL

— patent US10149876B2, “Tripterygium wilfordii extracts to overcome chemotherapy resistance” (WESTERN UNIVERSITY OF HEALTH SCIENCES, priority 2012, dated 2018)
